Data: PubChem BioAssay AID2060498 (Molecular Pharmacology Branch, DTP, NCI, 2025)

System: 171881-019-R-J1-PDC tumor spheroids, viability
Test: Anticancer human tumor 171881-019-R-J1-PDC patient-derived invasive breast carcinoma cell line growth inhibition [GQUAD]
Details: spheroids with HUVEC and MSC; for IC50: curve of first compound; for viability, T/C: stronger effect = lower value; active means viability on the fitted dose curve at most 10% of control; inactive means the rest
Excerpt: DNA G-quadruplex Stabilizer Agents in Combinations in Complex Spheroids
A high-throughput screen of multi-cell type tumor spheroids was designed to identify active combinations of DNA G-quadruplex stabilizer agents and targeted small molecules. Complex spheroids include a stromal component modeled by human endothelial cells (HUVEC) and fibroblasts modeled by human mesenchymal stem cells (MSCs). The concentration ranges selected for each drug and investigational agent were based upon clinically achievable concentrations if the clinical Cmax of the agent was known.
Compounds. The drugs and investigational agents: pidnarulex (CX-5461; NSC782164), APTO-253 (NSC789042), BRACO-19 (NSC847499), peposertib (NSC802822), ceralasertib (NSC780249), elimusertib (NSC800525), camonsertib (NSC841442), AZD-1390 (NSC803789), olaparib (NSC753686), talazoparib (NSC767125), ART-558 (NSC835418), sotorasib (NSC818433), MRTX-1133 (NSC836407), SN-38 (NSC673596), topotecan (NSC609699), etoposide (NSC141540), doxorubicin (NSC123127), gemcitabine (NSC613327), 5-fluorouracil (NSC19893), paclitaxel (NSC125973), vemurafenib (NSC761431), panobinostat (NSC761190), R-306465 (JNJ-16241199; NSC773264), adavosertib (NSC754352), TP-3654 (NSC805149), carboplatin (NSC241240), KSQ-4279 (NSC840948), and staurosporine (NSC755774) were obtained from the National Cancer Institute (NCI) Developmental Therapeutics Program Chemical Repository (34). The FDA-approved anticancer drug set is available from the NCI Developmental Therapeutics Program. […] The stock solutions were prepared in dimethyl sulfoxide (DMSO, Sigma-Aldrich, St. Louis, MO, cat. D2650) at 800-fold the tested concentration and stored at -70 degrees C prior to their use. All drugs and investigational agents were tested over a range starting from a high concentration at or near the clinical Cmax and decreasing in half-log increments. If the clinical Cmax for an agent had not been determined, the highest concentration tested was 10 microM.
2.3 Cell Culture. All cells were maintained in an incubator at 37 degrees C and 5% CO2 with 95% humidity. The PDC lines were cultured according to standard operating procedures established by the NCI PDMR. All PDCs were thawed and cultured in Matrigel-coated flasks prepared with a working solution of 1X Ham's F-12 nutrient mix, without supplementation (Invitrogen, cat. 11765054), 100 U/mL penicillin-streptomycin (Invitrogen, cat. 15140122), and 2.5% Matrigel (Corning Inc., cat. 354248) for the first three passages. The 857933-349-R-J2-PDC line was cultured in 6C/Colon 1B media, which includes advanced DMEM/F-12 (Thermo Fisher Scientific, cat. 12634028), 10 mM HEPES (Thermo Fisher Scientific, cat. 15630080), 1X GlutaMAX supplement (Thermo Fisher Scientific, cat. 35050061), 0.1 mg/mL primocin (InvivoGen, cat. ant-pm-2), 10% defined fetal bovine serum, heat inactivated (HyClone Laboratories Inc., cat. SH30070.03HI), 50% L-WRN conditioned media (ATCC, cat. CRL-3276), 1.25 mM N-Acetyl-L-cysteine (Sigma-Aldrich, cat. A9165), 10 mM nicotinamide (Sigma-Aldrich, cat. N0636), 1X B-27 supplement (Thermo Fisher Scientific, cat. 17504044), 1X N-2 supplement (Thermo Fisher Scientific, cat. 17502048), 10 microM Y-27632 dihydrochloride (Tocris Bioscience, cat. 1254), and 50 ng/mL human EGF recombinant protein (Thermo Fisher Scientific, cat. PHG0311). The 485176-168-R4-J1-PDC line was cultured in Panc media, which includes all 6C/Colon 1B media components plus 100 ng/mL human FGF-10 (Thermo Fisher Scientific, cat. 100-26), 500 nM SB-431542 (Selleckchem, cat. S1067), and gastrin (Tocris, cat. 3006).
[…]

[1] = second compound 0.0316 µM, first compound 0.0316 µM
[2] = second compound 0.0316 µM, first compound 0.1 µM
[3] = second compound 0.0316 µM, first compound 0.316 µM
[4] = second compound 0.0316 µM, first compound 1 µM
[5] = second compound 0.0316 µM, first compound 3.16 µM
[6] = second compound 0.0316 µM, first compound 10 µM
[7] = second compound 0.1 µM, first compound 0.0316 µM
[8] = second compound 0.1 µM, first compound 0.1 µM
[9] = second compound 0.1 µM, first compound 0.316 µM
[10] = second compound 0.1 µM, first compound 1 µM
[11] = second compound 0.1 µM, first compound 3.16 µM
[12] = second compound 0.1 µM, first compound 10 µM
[13] = second compound 0.316 µM, first compound 0.0316 µM
[14] = second compound 0.316 µM, first compound 0.1 µM
[15] = second compound 0.316 µM, first compound 0.316 µM
[16] = second compound 0.316 µM, first compound 1 µM
[17] = second compound 0.316 µM, first compound 3.16 µM
[18] = second compound 0.316 µM, first compound 10 µM
[19] = second compound 1 µM, first compound 0.0316 µM
[20] = second compound 1 µM, first compound 0.1 µM
[21] = second compound 1 µM, first compound 0.316 µM
[22] = second compound 1 µM, first compound 1 µM
[23] = second compound 1 µM, first compound 3.16 µM
[24] = second compound 1 µM, first compound 10 µM
[25] = second compound 3.16 µM, first compound 0.0316 µM
[26] = second compound 3.16 µM, first compound 0.1 µM
[27] = second compound 3.16 µM, first compound 0.316 µM
[28] = second compound 3.16 µM, first compound 1 µM
[29] = second compound 3.16 µM, first compound 3.16 µM
[30] = second compound 3.16 µM, first compound 10 µM
[31] = second compound 10 µM, first compound 0.0316 µM
[32] = second compound 10 µM, first compound 0.1 µM
[33] = second compound 10 µM, first compound 0.316 µM
[34] = second compound 10 µM, first compound 1 µM
[35] = second compound 10 µM, first compound 3.16 µM
[36] = second compound 10 µM, first compound 10 µM
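Further: spheroids exposed to compounds for 7 days.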

C=CC(=O)N1CCN(c2nc(=O)n(-c3c(C)ccnc3C(C)C)c3nc(-c4c(O)cccc4F)c(F)cc23)C(C)C1 (centres undefined) + Cc1cnc(CNC(=O)c2c(=O)c3ccc(N4CCCN(C)CC4)nc3n3c2sc2ccccc23)cn1
> 10 µM: IC50 (second compound 0.0316 µM) | IC50 (second compound 0.1 µM) | IC50 (second compound 0.316 µM) | IC50 (second compound 1 µM) | IC50 (second compound 3.16 µM) | IC50 (second compound 10 µM)
inactive: viability, T/C [1] 113% | viability, T/C [2] 92.9% | viability, T/C [3] 100% | viability, T/C [4] 103% | viability, T/C [5] 87.2% | viability, T/C [6] 50.9% | viability, T/C [7] 88.3% | viability, T/C [8] 90.8% | viability, T/C [9] 78.4% | viability, T/C [10] 93.2% | viability, T/C [11] 81.6% | viability, T/C [12] 55.8% | viability, T/C [13] 79.2% | viability, T/C [14] 80.4% | viability, T/C [15] 80.9% | viability, T/C [16] 82.2% | viability, T/C [17] 82.6% | viability, T/C [18] 63.4% | viability, T/C [19] 73.4% | viability, T/C [20] 63.2% | viability, T/C [21] 77.7% | viability, T/C [22] 78.1% | viability, T/C [23] 81.8% | viability, T/C [24] 66.5% | viability, T/C [25] 70.6% | viability, T/C [26] 67.5% | viability, T/C [27] 73.2% | viability, T/C [28] 66.3% | viability, T/C [29] 83.3% | viability, T/C [30] 68.9% | viability, T/C [31] 61.2% | viability, T/C [32] 65.1% | viability, T/C [33] 65.7% | viability, T/C [34] 74.5% | viability, T/C [35] 81.7% | viability, T/C [36] 68%

CC1COCCN1c1cc(C2(O)CC3CCC(C2)O3)c2cnn(-c3ccn[nH]3)c2n1 (centres undefined) + Cc1cnc(CNC(=O)c2c(=O)c3ccc(N4CCCN(C)CC4)nc3n3c2sc2ccccc23)cn1
inactive: viability, T/C [1] 33.7% | viability, T/C [2] 16.5% | viability, T/C [7] 33.8% | viability, T/C [8] 17.1% | viability, T/C [13] 34.8% | viability, T/C [14] 21.1% | viability, T/C [15] 10.6% | viability, T/C [19] 35.5% | viability, T/C [20] 22.2% | viability, T/C [21] 13.5% | viability, T/C [25] 44.8% | viability, T/C [26] 27.9% | viability, T/C [27] 16.4% | viability, T/C [31] 43.3% | viability, T/C [32] 31.1% | viability, T/C [33] 15.4%
< 0.0316 µM: IC50 (second compound 0.0316 µM) | IC50 (second compound 0.1 µM) | IC50 (second compound 0.316 µM) | IC50 (second compound 1 µM) | IC50 (second compound 3.16 µM) | IC50 (second compound 10 µM)
active: viability, T/C [3] 9.78% | viability, T/C [4] 5.45% | viability, T/C [5] 4.11% | viability, T/C [6] 2.67% | viability, T/C [9] 9.54% | viability, T/C [10] 5.51% | viability, T/C [11] 4.25% | viability, T/C [12] 3.04% | viability, T/C [16] 5.81% | viability, T/C [17] 4.2% | viability, T/C [18] 3.15% | viability, T/C [22] 6.47% | viability, T/C [23] 4.91% | viability, T/C [24] 2.51% | viability, T/C [28] 6.87% | viability, T/C [29] 4.24% | viability, T/C [30] 0.23% | viability, T/C [34] 7.69% | viability, T/C [35] 3.95% | viability, T/C [36] 0.2%
